Source: article PMC10396955, “2-Oxabicyclo[2.1.1]hexanes as saturated bioisosteres of the ortho-substituted phenyl ring” (Nature Chemistry, 2023)

How the values were obtained:
Fusarium oxysporum = assay: Antifungal activity, agar well diffusion method; format: cell-based; details: for zone of inhibition at 3.9 µg/mL / zone of inhibition at […] / zone of inhibition at 15.6 µg/mL / zone of inhibition at 31.25 µg/mL / zone of inhibition at 62.5 µg/mL / zone of inhibition at 125 µg/mL / zone of inhibition at 250 µg/mL / zone of inhibition at 500 µg/mL / zone of inhibition at 1000 µg/mL: Fusarium oxysporum, zones st (static growth), read-out: Diameter of inhibition zone; for zone of inhibition at 3.9 µg/mL: 0.0039 mg/mL; for zone of inhibition at […]: 0.0078 mg/mL; for zone of inhibition at 15.6 µg/mL: 0.0156 mg/mL; for zone of inhibition at 31.25 µg/mL: 0.03125 mg/mL; for zone of inhibition at 62.5 µg/mL: 0.0625 mg/mL; for zone of inhibition at 125 µg/mL: 0.125 mg/mL; for zone of inhibition at 250 µg/mL: 0.25 mg/mL; for zone of inhibition at 500 µg/mL: 0.5 mg/mL; for zone of inhibition at 1000 µg/mL: 1 mg/mL, 40 µl per well, 25 °C, 72 h; for lowest inhibition concentration: agar well diffusion, tested 0.0039-1.0 mg/mL
Excerpt: (§1) The agar well diffusion method is widely used to evaluate the antimicrobial activity of different substances (S. Magaldi, S. Mata-Essayag, C. Hartung de Capriles, et al. Well diffusion for antifungal susceptibility testing, Int. J. Infect. Dis. 8, 2004 , 39–45; C. Valgas, S. M. De Souza, E. F. A. Smânia, et al. Screening methods to determine antibacterial activity of natural products. Braz. J. Microbiol. 38 , 2007 , 369–380). Similarly to the procedure used in a disk-diffusion method, the agar plate surface is inoculated by spreading a volume of the microbial inoculum over the entire agar surface. Then, a hole with a diameter of 6 to 8 mm is punched aseptically with a sterile cork borer or a tip, and a volume […] of the antimicrobial agent or extract solution at desired concentration is introduced into the well. Then, agar plates are incubated under suitable conditions depending upon the test microorganism. The antimicrobial agent diffuses in the agar medium and inhibits the growth of the microbial strain tested (M. Balouiri, M. Sadiki, S. K. Ibnsouda. Methods for in vitro evaluating […]
(§2) Agar well diffusion method is a qualitative method used to measure the ability of compounds to inhibit microbial growth. This test is a quick and easy way to measure and compare levels of inhibitory […]
(§3) Antifungal activity of the synthetic compounds using agar well diffusion The compunds were tested towards plant pathogens Fusarium oxysporum Schltdl. and F. verticillioides (Sacc.) Nirenberg isolated from crops. Antifungal activity of the synthetic compounds was evaluated with using of an agar well diffusion method based on a disk diffusion assay for testing filamentous fungi (CLSI M51-A) [CLSI. Method for Antifungal Disk Diffusion Susceptibility Testing of Nondermatophyte Filamentous Fungi; Approved Guideline.CLSI document M51-A. Wayne, PA:
(§4) Clinical and Laboratory Standards Institute; 2010. This method is standardized for Altenaria , Aspergillus, Bipolaris , Fusarium , order Mucorales etc.
(§5) Preparation of synthetic compounds for mycological assay
(§6) Solutions of fungicides and its analogs were diluted in dimethyl sulfoxide (DMSO) to produce the […]
(§7) Antifungal well diffusion method
(§8) The fungal strains were cultured on potato dextrose agar slants (PDA, Eur. Pharm.) and incubated at 25 °C for 5 days. Sterile distilled water was used to cover and resuspend the colonies. Suspension of […]
(§9) conidia was adjusted to inoculums 5×10^6 conidia/mL. The suspension was further diluted in warm PDA 1:10 to obtain final working inoculums 5×10^5 conidia/mL.
(§10) Polypropylene cylinders (d, 5 mm) were placed on the surface and wells punched in the medium were used as reservoir of the test substances in different concentrations. 40 µl of solutions containing 0.0039-1.0 mg/mL of a test compound was added into the wells.
(§11) Each compound was tested in triplicate at different concentrations. Growth control was a well with 40 µl of DMSO, which was used for test components dilution.
(§12) Plates incubated at 25 °C for 72 h. The test compounds at known concentration into contact with an inoculated medium then exerts a growth-inhibiting effect then a clear zone (the zone of inhibition) appears around the test product. Diameter of a clear zone around the well is measured at the end of the incubation period in millimeters. If the fungal strain is susceptible to the antifungal agent, then a zone of inhibition appears on the agar plate. If it is resistant to the test compound, then no zone is evident.
(§13) The size of the zone of inhibition is usually related to the level of antifungal activity present in the […]
(§14) The growth rate of Fusarium oxysporum and F. verticillioides for each well was determined visually and compared with the growth of control.
(§15) As shown in the table the antifungal activity of the 6 compounds, - Fluxapyroxad, compound 28, compound 29, Boscalid, compound 30, compound 31, - were tested against plant pathogenic fungal […]
(§16) toward Fusarium oxysporum (Table S5, Figure S16). Inhibition zones of all compounds characterized […]

Fusarium verticillioides = assay: Antifungal activity, agar well diffusion method; format: cell-based; details: for zone of inhibition at 3.9 µg/mL / zone of inhibition at […] / zone of inhibition at 15.6 µg/mL / zone of inhibition at 31.25 µg/mL / zone of inhibition at 62.5 µg/mL / zone of inhibition at 125 µg/mL / zone of inhibition at 250 µg/mL / zone of inhibition at 500 µg/mL / zone of inhibition at 1000 µg/mL: Fusarium verticillioides, 0 = absence of antifungal activity, read-out: Diameter of inhibition zone; for zone of inhibition at 3.9 µg/mL: 0.0039 mg/mL; for zone of inhibition at […]: 0.0078 mg/mL; for zone of inhibition at 15.6 µg/mL: 0.0156 mg/mL; for zone of inhibition at 31.25 µg/mL: 0.03125 mg/mL; for zone of inhibition at 62.5 µg/mL: 0.0625 mg/mL; for zone of inhibition at 125 µg/mL: 0.125 mg/mL; for zone of inhibition at 250 µg/mL: 0.25 mg/mL; for zone of inhibition at 500 µg/mL: 0.5 mg/mL; for zone of inhibition at 1000 µg/mL: 1 mg/mL, 40 µl per well, 25 °C, 72 h; for lowest inhibition concentration: agar well diffusion, tested 0.0039-1.0 mg/mL
Excerpt: as §1, §2, §3, §4, §5, §6, §7, §8, §9, §10, §11, §12, §13, §14, §15, §16

Compound	zone of inhibition at 3.9 µg/mL (Fusarium oxysporum)	zone of inhibition at […] (Fusarium oxysporum)	zone of inhibition at 15.6 µg/mL (Fusarium oxysporum)	zone of inhibition at 31.25 µg/mL (Fusarium oxysporum)	zone of inhibition at 62.5 µg/mL (Fusarium oxysporum)	zone of inhibition at 125 µg/mL (Fusarium oxysporum)	zone of inhibition at 250 µg/mL (Fusarium oxysporum)	zone of inhibition at 500 µg/mL (Fusarium oxysporum)	zone of inhibition at 1000 µg/mL (Fusarium oxysporum)	lowest inhibition concentration (Fusarium oxysporum)	zone of inhibition at 3.9 µg/mL (Fusarium verticillioides)	zone of inhibition at […] (Fusarium verticillioides)	zone of inhibition at 15.6 µg/mL (Fusarium verticillioides)	zone of inhibition at 31.25 µg/mL (Fusarium verticillioides)	zone of inhibition at 62.5 µg/mL (Fusarium verticillioides)	zone of inhibition at 125 µg/mL (Fusarium verticillioides)	zone of inhibition at 250 µg/mL (Fusarium verticillioides)	zone of inhibition at 500 µg/mL (Fusarium verticillioides)	zone of inhibition at 1000 µg/mL (Fusarium verticillioides)	lowest inhibition concentration (Fusarium verticillioides)	other results
Cn1cc(C(=O)N[C@@H]2[C@@H]3CC[C@@]2(c2cc(F)c(F)c(F)c2)C3)c(C(F)F)n1 (relative stereo) [Compound 28]	20 mm	25 mm	26 ± 1 mm	28 ± 1 mm	30 ± 0.6 mm	34 ± 1.2 mm	38 ± 1.5 mm	38 ± 0.6 mm	44 ± 1.15 mm	< 0.0039 mg/mL	35 ± 1.5 mm	37 ± 1.5 mm	41 ± 1.2 mm	41 ± 1.7 mm	47 ± 1 mm	48 ± 1.5 mm	51 ± 1.5 mm	51 ± 1.7 mm	58 ± 1.5 mm		
Cn1cc(C(=O)N[C@@H]2[C@H]3C[C@]2(c2cc(F)c(F)c(F)c2)CO3)c(C(F)F)n1 (relative stereo) [Compound 29]	9 ± 1.2 mm	13 ± 1.5 mm	14 ± 1.2 mm	18 ± 1.5 mm	18 ± 0.6 mm	23 ± 0.6 mm	32 ± 1.7 mm	36 ± 1 mm	38 ± 1.53 mm	0.0039 mg/mL	0 mm	10 mm	15 ± 0.6 mm	26 ± 1.2 mm	31 ± 1.2 mm	35 ± 1 mm	39 ± 1.2 mm	41 ± 1.7 mm	45 ± 0.6 mm	0.0078 mg/mL	
O=C(N[C@@H]1[C@@H]2CC[C@@]1(c1ccc(Cl)cc1)C2)c1cccnc1Cl (relative stereo) [Compound 30]	16 ± 1.2 mm	19 ± 1.2 mm	20 ± 1.5 mm	25 ± 0.6 mm	25 mm	30 mm	30 mm	30 mm	30 mm	< 0.0039 mg/mL	11 ± 1.2 mm	19 ± 1.2 mm	25 ± 0.6 mm	30 ± 0.6 mm	31 ± 1 mm	36 ± 1.7 mm	41 ± 1.2 mm	46 ± 1.7 mm	49 ± 1.2 mm	< 0.0039 mg/mL	
O=C(N[C@@H]1[C@H]2C[C@]1(c1ccc(Cl)cc1)CO2)c1cccnc1Cl (relative stereo) [Compound 31]	8 ± 0.6 mm	9 ± 0.6 mm	14 ± 1 mm	16 ± 1 mm	18 ± 0.6 mm	19 ± 1 mm	18 ± 1 mm	21 ± 1 mm	25 ± 0.6 mm	0.0039 mg/mL	0 mm	0 mm	0 mm	0 mm	0 mm	10 ± 0.6 mm	16 ± 1.2 mm	23 ± 1.5 mm	29 ± 1.2 mm		melting point: 147 to 148 °C
O=C(Nc1ccccc1-c1ccc(Cl)cc1)c1cccnc1Cl [Boscalid, reference compound]	9 ± 0.6 mm	9 ± 1.7 mm	11 ± 1.5 mm	12 ± 1.7 mm	24 ± 1 mm	25 mm	30 mm	31 ± 1.2 mm	39 ± 0.6 mm	0.0039 mg/mL	0 mm	11 ± 1 mm	24 ± 1.5 mm	28 ± 1 mm	30 ± 0.6 mm		39 ± 0.6 mm	40 ± 0.6 mm	44 ± 1.2 mm	0.0078 mg/mL	
Cn1cc(C(=O)Nc2ccccc2-c2cc(F)c(F)c(F)c2)c(C(F)F)n1 [Fluxapyroxad, reference compound]	14 ± 1.2 mm	17 ± 1.2 mm	22 ± 1.7 mm	28 ± 1.5 mm	30 ± 0.6 mm	33 ± 1 mm	35 ± 0.6 mm	38 ± 1.5 mm	43 ± 1.53 mm	< 0.0039 mg/mL	19 ± 0.6 mm	26 ± 1.2 mm	30 ± 1.5 mm	33 ± 0.6 mm	34 ± 1.2 mm	36 ± 0.6 mm	40 ± 1 mm	49 ± 1.2 mm	56 ± 1.7 mm		
